Tests used:
HDAC = settings: read-out: HDAC activity is inhibited (reported concentration); depending of the HDAC activity assay used; cited from earlier work
[1] = tested on: HDAC activity of Hela (human cervical cancer cell line) cells nuclear extract; assay: HDAC Fluorescent Activity Assay (Biomol Fluor de Lys substrate) with Hela nuclear extract; type: biochemical; settings: read-out: IC50 (dose of compound leading to 50% of HDAC activity), Hela nuclear extract 5 μg, room temperature 0.5 h
From the text: Therefore, a fast, non isotopic method has been chosen that relies on a fluorescent HDAC substrate. This assay is a two step enzymatic reaction. The substrate used is a peptidic substrate with a ε-acetylated lysyl moiety followed by a 4-methylcoumarin-7-amide (AMC) moiety at their carboxy terminus. In the first reaction catalysed by HDACs, acetate is released from ε-acetylated lysine residue. In the second reaction, the deacetylated peptides are recognized as substrate by trypsin, which cleaves the deacetylated peptide after the lysine residue. This cleavage releases the AMC and the fluorescence is monitored by a fluorometer.
In order to evaluate the effect of one compound on HDAC activity, the HDAC Fluorescent Activity Assay/Drug Discovery Kit® developed by Biomol and based on the two step enzymatic reaction described above was used with modifications. The substrate of the Biomol assay, called Fluor de Lys™, comprises an acetylated lysine side chain with an AMC moiety.
Then, 5 μg of Hela (human cervical cancer cell line) cells nuclear extract is added in each well. The enzymatic reaction is initiated by the addition of the diluted Fluor de Lys™ substrate and the microplate is incubated at room temperature (e.g. 25° C.) for 0.5 h. In order to stop the reaction and to produce the fluorophore release, 50 μl of the Fluor de Lys™ Developer solution is added in each well and the microplate is incubated at room temperature (e.g. 25° C.) for 0.25 h. Finally, the fluorescence is measured by a fluorimeter (Fluoroskan Ascent FL, Thermolabsystem) at excitation wavelength of 360 nm and emission wavelength of 460 nm.

| SMILES | IC50 [1] [nM] | melting point [°C] | IC50 (HDAC) [nM] |
| --- | --- | --- | --- |
| CC(/C=C/C(=O)NO)=C\[C@@H](C)C(=O)c1ccc(N(C)C)cc1 [TSA, Trichostatin A] | – | – | 1.4 to 2.6 |
| CC1(C)CCC(C)(C)c2cc(C(=O)Nc3ccc(C(=O)NO)cc3)ccc21 [EHT 3741, N-(4-(Hydroxycarbamoyl)phenyl)-5,6,7,8-tetrahydro-5,5,8,8-tetramethylnaphthalene-2-carboxamide] | 5130 | – | – |
| CC1(C)CCC(C)(C)c2cc(C(=O)Nc3ccc(C(F)(F)C(=O)NO)cc3)ccc21 [EHT 4996, N-(4-((hydroxycarbamoyl)difluoromethyl)phenyl)-5,6,7,8-tetrahydro-5,5,8,8-tetramethylnaphthalene-2-carboxamide] | – | 224.2 | – |

More lines, main results first:

| IC50 [1] [nM] | melting point [°C] | SMILES | IC50 (HDAC) [nM] |
| --- | --- | --- | --- |
| 424 | – | CC1(C)CCC(C)(C)c2cc(C(F)(F)C(=O)Nc3ccc(C(=O)NO)cc3)ccc21 [EHT 9299, 4-(2,2-Difluoro-2-(1,2,3,4-tetrahydro-1,1,4,4-tetramethylnaphthalen-7-yl)acetamido)-N-hydroxybenzamide] | – |
| 1180 | 211 | CC1(C)CCC(C)(C)c2cc(NC(=O)c3ccc(C(=O)NO)cc3)ccc21 [EHT 7706, N-(1,2,3,4-Tetrahydro-1,1,4,4-tetramethylnaphthalen-6-yl)-N′-hydroxyterephthalamide] | – |
| 4100 | – | CC1(C)CCC(C)(C)c2cc(C(F)(F)C(=O)NCc3ccc(C(=O)NO)cc3)ccc21 [EHT 7800, 4-((2,2-Difluoro-2-(1,2,3,4-tetrahydro-1,1,4,4-tetramethylnaphthalen-7-yl)acetamido)methyl)-N-hydroxybenzamide] | – |

From patent US7923579B2, “Tricyclic hydroxamate and benzamide derivatives, compositions and methods” (Exonhit Therapeutics S.A., priority 2003, dated 2011)
